Results taken from patent US8377983B2, “Benzazole derivatives, compositions, and methods of use as aurora kinase inhibitors” (TransTech Pharma, Inc., priority 2006, dated 2013).

Legend:
[1] = system: human MiaPaCa-2 pancreatic xenografts; assay: MiaPaCa-2 xenograft model, Example 88 alone and in combination with gemcitabine; type: in vivo, athymic mice; settings: for Median Tumor Size: Example 88 10 mg/kg i.p. b.i.d. 10 days, gemcitabine 120 mg/kg i.p. q3d×4
Procedure: (§1) Compounds were dosed on the following schedules:
2) Gemcitabine was dosed 120 mg/kg, i.p., q3d×4 (days 1, 4, 7, 10).
Drug treatment started when mean tumor sizes reached approximately 120 mg (day 8). Mice-bearing sc tumors were randomized, and treatment groups consisted of 8 mice. The median tumor size for each group at various points in the study are listed below in Table B.

[2] = system: human MiaPaCa-2 pancreatic xenografts; assay: MiaPaCa-2 xenograft model, Example 88 alone and in combination with erlotinib; type: in vivo, athymic mice; settings: for Median Tumor Size: Example 88 10 mg/kg i.p. b.i.d. 10 days, erlotinib 50 mg/kg p.o. daily 14 days
Procedure: as §1
2) Erlotinib was dosed 50 mg/kg, p.o., daily for 14 days (days 1-14).
Mice-bearing sc tumors were randomized, and treatment groups consisted of 8 mice.

BT-474 breast xenograft = assay: BT-474 xenograft model, Example 88 alone and in combination with trastuzumab; type: in vivo, athymic SCID mice; settings: for Median Tumor Size: Example 88 30 mg/kg i.p. b.i.d. 3 days on, 2 days off, 5 cycles, trastuzumab 10 mg/kg i.p. twice weekly 4 weeks
Source text: Mice-bearing sc tumors were randomized, and treatment groups consisted of 10 mice.

[3] = system: human tumor xenografts derived from pancreas and breast tissues; assay: Single agent antitumor activity in established human tumor xenografts; type: in vivo; settings: established human tumor xenografts in athymic mice
Source text: While the compounds of the present invention may be used as a single agent, they may also be used as part of a combination therapy.

[4] = day 8 of study (treatment start)
[5] = day 42, out of 8 mice, Example 88 10 mg/kg, gemcitabine 120 mg/kg
[6] = previous dose response studies in this model, 10 mg/kg
[7] = day 24, out of 10 mice, Table CC head: Example 88 10 mg/kg, Trastuzumab 10 mg/kg

O=C(Nc1ccc2cn[nH]c2c1)c1cc2nc(Nc3ccccc3C(F)(F)F)[nH]c2cc1N1CCNCC1 [Example 88, 6-Piperazin-1-yl-2-(2-trifluoromethylphenylamino)-1H-benzimidazole-5-carboxylic acid (1H-indazol-6-yl)-amide]
Median Tumor Size [1, 4]: 120 mg
Median Tumor Size ([1]; day 10 of study): 162 mg
Median Tumor Size ([1]; day 13 of study): 170 mg
Median Tumor Size ([1]; day 16 of study): 170 mg
Median Tumor Size ([1]; day 20 of study): 221 mg
Median Tumor Size ([1]; day 23 of study): 209 mg
Median Tumor Size ([1]; day 27 of study): 368 mg
Median Tumor Size ([1]; day 30 of study): 486 mg
Median Tumor Size ([1]; day 34 of study): 817 mg
Median Tumor Size ([1]; day 37 of study): 1055 mg
complete responders (CR, 100% reduction in tumor size) [1, 5]: 0/8
partial responders (PR, greater than 50% reduction in tumor size) [1, 5]: 0/8
Median Tumor Size ([1]; day 42 of study): 1629 mg
effectiveness of dose for inhibition of tumor growth [1, 6]: moderately effective dose
Median Tumor Size [2, 4]: 120 mg
Median Tumor Size ([2]; day 10 of study): 162 mg
Median Tumor Size ([2]; day 13 of study): 170 mg
Median Tumor Size ([2]; day 16 of study): 170 mg
Median Tumor Size ([2]; day 20 of study): 221 mg
Median Tumor Size ([2]; day 23 of study): 209 mg
Median Tumor Size ([2]; day 27 of study): 368 mg
Median Tumor Size ([2]; day 30 of study): 486 mg
Median Tumor Size ([2]; day 34 of study): 817 mg
Median Tumor Size ([2]; day 37 of study): 1055 mg
Median Tumor Size ([2]; day 42 of study): 1629 mg
effectiveness of dose for inhibition of tumor growth [2, 6]: moderately effective dose
Median Tumor Size (BT-474 breast xenograft; day 4 of study): 120 mg
Median Tumor Size (BT-474 breast xenograft; day 7 of study): 152 mg
Median Tumor Size (BT-474 breast xenograft; day 10 of study): 153 mg
Median Tumor Size (BT-474 breast xenograft; day 14 of study): 179 mg
Median Tumor Size (BT-474 breast xenograft; day 17 of study): 149 mg
Median Tumor Size (BT-474 breast xenograft; day 21 of study): 142 mg
complete responders (CR) (BT-474 breast xenograft; [7]): 0/10
partial responders (PR) (BT-474 breast xenograft; [7]): 0/10
Median Tumor Size (BT-474 breast xenograft; day 24 of study): 138 mg
Median Tumor Size (BT-474 breast xenograft; day 28 of study): 104 mg
antitumor activity as a single agent [3]: demonstrated antitumor activity
